{"source": "PubChem BioAssay AID192", "about": "(DTP/NCI, 2004)", "test_system": "BDF1 mice, B16 melanoma ip, median survival T/C", "assay": "NCI In Vivo Anticancer Drug Screen. Data for tumor model B16 Melanoma (intraperitoneal) in B6D2F1 (BDF1) mice", "conditions": "endpoint: median survival time, higher = longer survival", "in_short": "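Tumor-bearing mice received test compound or vehicle. Survival or tumor size was then measured in both groups. The treated-group figure was divided by the control-group figure.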", "key": {"[1]": {"conditions": "dose: 100.0 mg/kg/injection, schedule: Q01DX009 (ip), vehicle: Klucel (hydroxypropylcellulose) (HPC)"}, "[2]": {"conditions": "dose: 200.0 mg/kg/injection, schedule: Q01DX009 (ip), vehicle: Klucel (hydroxypropylcellulose) (HPC)"}, "[3]": {"conditions": "dose: 400.0 mg/kg/injection, schedule: Q01DX009 (ip), vehicle: Klucel (hydroxypropylcellulose) (HPC)"}, "[4]": {"conditions": "dose: 12.5 mg/kg/injection, schedule: Q01DX009 (ip), vehicle: saline"}, "[5]": {"conditions": "dose: 25.0 mg/kg/injection, schedule: Q01DX009 (ip), vehicle: saline"}, "[6]": {"conditions": "dose: 50.0 mg/kg/injection, schedule: Q01DX009 (ip), vehicle: saline"}, "[7]": {"conditions": "dose: 25.0 mg/kg/injection, schedule: Q01DX009 (ip), vehicle: Klucel (hydroxypropylcellulose) (HPC)"}, "[8]": {"conditions": "dose: 50.0 mg/kg/injection, schedule: Q01DX009 (ip), vehicle: Klucel (hydroxypropylcellulose) (HPC)"}}, "note": "“And” between values parts separate entries of the source, which are not always exact repeats. Identical values can stand only once. Inconclusive results and toxic doses are left out."}
{"molecule": "CC(=O)Oc1ccc[nH]c1=O", "values": [{"measurement": "T/C", "setting": "dose: 75.0 mg/kg/injection, schedule: Q01DX009 (ip), vehicle: saline", "result": "91 % of control and 94 % of control"}, {"measurement": "T/C", "setting": "dose: 150.0 mg/kg/injection, schedule: Q01DX009 (ip), vehicle: saline", "result": "91 % of control"}, {"measurement": "T/C", "setting": "dose: 200.0 mg/kg/injection, schedule: Q01DX009 (ip), vehicle: saline with Tween-80", "result": "105 % of control"}, {"measurement": "T/C", "setting": "dose: 200.0 mg/kg/injection, schedule: Q01DX009 (ip), vehicle: saline", "result": "90 % of control and 95 % of control"}, {"measurement": "T/C", "setting": "dose: 300.0 mg/kg/injection, schedule: Q01DX009 (ip), vehicle: saline", "result": "104 % of control and 105 % of control"}, {"measurement": "T/C", "setting": "dose: 400.0 mg/kg/injection, schedule: Q01DX009 (ip), vehicle: saline with Tween-80", "result": "105 % of control"}, {"measurement": "T/C", "setting": "dose: 600.0 mg/kg/injection, schedule: Q01DX009 (ip), vehicle: saline with Tween-80", "result": "106 % of control"}]}
{"molecule": "CCOc1ccc(/C=N/NS(=O)(=O)c2ccc(C)cc2)cc1", "values": [{"measurement": "T/C", "setting": "[1]", "result": "96 % of control"}, {"measurement": "T/C", "setting": "[2]", "result": "90 % of control"}, {"measurement": "T/C", "setting": "[3]", "result": "90 % of control"}]}
{"molecule": "CCOC(=O)NNC(=O)c1ccccc1N(C)C", "values": [{"measurement": "T/C", "setting": "[1]", "result": "116 % of control"}, {"measurement": "T/C", "setting": "[2]", "result": "104 % of control"}, {"measurement": "T/C", "setting": "[3]", "result": "92 % of control"}]}
{"molecule": "Cc1ccc(N=C(c2ccc([N+](=O)[O-])cc2)c2ccc([N+](=O)[O-])cc2)cc1", "values": [{"measurement": "T/C", "setting": "[1]", "result": "111 % of control"}, {"measurement": "T/C", "setting": "[2]", "result": "97 % of control"}, {"measurement": "T/C", "setting": "[3]", "result": "91 % of control"}]}
{"molecule": "[Cu+2].[NH-]C1(C(=O)O)CCCC1.[NH-]C1(C(=O)O)CCCC1", "values": [{"measurement": "T/C", "setting": "dose: 2.5 mg/kg/injection, schedule: Q01DX009 (ip), vehicle: saline with Tween-80", "result": "93 % of control"}, {"measurement": "T/C", "setting": "dose: 5.0 mg/kg/injection, schedule: Q01DX009 (ip), vehicle: saline with Tween-80", "result": "93 % of control"}, {"measurement": "T/C", "setting": "dose: 10.0 mg/kg/injection, schedule: Q01DX009 (ip), vehicle: saline with Tween-80", "result": "93 % of control"}]}
{"molecule": "COc1nc(=O)n(C2C=CC(=O)O2)cc1F", "note": "(configuration not stated)", "values": [{"measurement": "T/C", "setting": "dose: 6.25 mg/kg/injection, schedule: Q01DX009 (ip), vehicle: saline", "result": "101 % of control"}, {"measurement": "T/C", "setting": "[4]", "result": "95 % of control"}, {"measurement": "T/C", "setting": "[5]", "result": "89 % of control"}, {"measurement": "T/C", "setting": "[6]", "result": "87 % of control"}, {"measurement": "T/C", "setting": "dose: 100.0 mg/kg/injection, schedule: Q01DX009 (ip), vehicle: saline", "result": "91 % of control"}]}
{"molecule": "CC(C)NNC(=O)c1ccc(Cl)cc1", "values": [{"measurement": "T/C", "setting": "dose: 6.25 mg/kg/injection, schedule: Q01DX009 (ip), vehicle: Klucel (hydroxypropylcellulose) (HPC)", "result": "89 % of control"}, {"measurement": "T/C", "setting": "dose: 12.5 mg/kg/injection, schedule: Q01DX009 (ip), vehicle: Klucel (hydroxypropylcellulose) (HPC)", "result": "92 % of control"}, {"measurement": "T/C", "setting": "[7]", "result": "89 % of control"}, {"measurement": "T/C", "setting": "[8]", "result": "94 % of control"}, {"measurement": "T/C", "setting": "[1]", "result": "107 % of control"}]}
{"molecule": "CCCCCCCCCCCCCCCCCCNC(=O)CCl", "values": [{"measurement": "T/C", "setting": "[8]", "result": "93 % of control"}, {"measurement": "T/C", "setting": "[1]", "result": "93 % of control"}, {"measurement": "T/C", "setting": "[2]", "result": "86 % of control"}]}
{"molecule": "O=C(O)c1c(-c2ccccc2)[nH]c2cc(Cl)ccc2c1=O", "values": [{"measurement": "T/C", "setting": "[4]", "result": "100 % of control"}, {"measurement": "T/C", "setting": "[5]", "result": "102 % of control"}, {"measurement": "T/C", "setting": "[6]", "result": "102 % of control"}, {"measurement": "T/C", "setting": "dose: 100.0 mg/kg/injection, schedule: Q04DX003 (ip), vehicle: saline with Tween-80", "result": "109 % of control"}, {"measurement": "T/C", "setting": "dose: 200.0 mg/kg/injection, schedule: Q01DX005 (ip), vehicle: saline", "result": "95 % of control"}, {"measurement": "T/C", "setting": "dose: 200.0 mg/kg/injection, schedule: Q04DX003 (ip), vehicle: saline with Tween-80", "result": "102 % of control"}]}
{"molecule": "CC(=O)OC(C)(C)/C=C/C(=O)[C@](C)(O)[C@H]1[C@H](O)C[C@@]2(C)[C@@H]3CC=C4[C@@H](C=C(O)C(=O)C4(C)C)[C@]3(C)C(=O)C[C@]12C", "values": [{"measurement": "T/C", "setting": "dose: 0.25 mg/kg/injection, schedule: Q01DX009 (ip), vehicle: saline with Tween-80", "result": "90 % of control"}, {"measurement": "T/C", "setting": "dose: 0.5 mg/kg/injection, schedule: Q01DX009 (ip), vehicle: saline with Tween-80", "result": "109 % of control"}, {"measurement": "T/C", "setting": "dose: 1.0 mg/kg/injection, schedule: Q01DX009 (ip), vehicle: saline with Tween-80", "result": "102 % of control"}, {"measurement": "T/C", "setting": "dose: 2.0 mg/kg/injection, schedule: Q01DX009 (ip), vehicle: saline with Tween-80", "result": "93 % of control"}, {"measurement": "T/C", "setting": "dose: 4.0 mg/kg/injection, schedule: Q01DX009 (ip), vehicle: saline with Tween-80", "result": "95 % of control"}]}
{"molecule": "O=C(Nc1ccccc1)c1ccc(C(F)(F)F)cc1O", "values": [{"measurement": "T/C", "setting": "[7]", "result": "95 % of control"}, {"measurement": "T/C", "setting": "[8]", "result": "95 % of control"}]}
{"molecule": "CNC(=O)Nc1nc2ccc([N+](=O)[O-])cc2[nH]1", "values": [{"measurement": "T/C", "setting": "dose: 50.0 mg/kg/injection, schedule: Q01DX009 (ip), vehicle: suspension in saline", "result": "101 % of control"}, {"measurement": "T/C", "setting": "dose: 100.0 mg/kg/injection, schedule: Q01DX009 (ip), vehicle: suspension in saline", "result": "91 % of control"}, {"measurement": "T/C", "setting": "dose: 200.0 mg/kg/injection, schedule: Q01DX009 (ip), vehicle: suspension in saline", "result": "90 % of control"}, {"measurement": "T/C", "setting": "dose: 400.0 mg/kg/injection, schedule: Q01DX009 (ip), vehicle: suspension in saline", "result": "91 % of control"}]}
{"molecule": "Cc1ccc(N(CCCl)CCCl)cc1NC(=O)c1ccccc1", "values": [{"measurement": "T/C", "setting": "dose: 400.0 mg/kg/injection, schedule: Q01DX009 (ip), vehicle: saline", "result": "161 % of control"}, {"measurement": "T/C", "setting": "dose: 800.0 mg/kg/injection, schedule: Q01DX009 (ip), vehicle: saline", "result": "188 % of control"}]}
{"molecule": "CC(C)[NH-].CC(C)[NH-].[Cl][Pt+2][Cl]", "values": [{"measurement": "T/C", "setting": "dose: 12.5 mg/kg/injection, schedule: Q01DX009 (ip), vehicle: dextrose", "result": "155 % of control"}]}
